The values that follow come from ChEMBL document CHEMBL5465560, “Selectivity Literature for EUbOPEN Chemogenomic Library” (2024).

Molecules are shown by their SMILES.

In experiment [1] the target is Tyrosine-protein kinase Fyn (Homo sapiens) (UniProt P06241). In words: Selectivity interaction (Ambit KINOMEscan and KiNATiv profiling in Jurkat cells) EUB0000090b FYN. The format is cell-based. Particulars: at 1 µM.
Experiment [2] addresses T1, Activin receptor type-1B (Homo sapiens) (UniProt P36896).
T1 sequence (whole entry): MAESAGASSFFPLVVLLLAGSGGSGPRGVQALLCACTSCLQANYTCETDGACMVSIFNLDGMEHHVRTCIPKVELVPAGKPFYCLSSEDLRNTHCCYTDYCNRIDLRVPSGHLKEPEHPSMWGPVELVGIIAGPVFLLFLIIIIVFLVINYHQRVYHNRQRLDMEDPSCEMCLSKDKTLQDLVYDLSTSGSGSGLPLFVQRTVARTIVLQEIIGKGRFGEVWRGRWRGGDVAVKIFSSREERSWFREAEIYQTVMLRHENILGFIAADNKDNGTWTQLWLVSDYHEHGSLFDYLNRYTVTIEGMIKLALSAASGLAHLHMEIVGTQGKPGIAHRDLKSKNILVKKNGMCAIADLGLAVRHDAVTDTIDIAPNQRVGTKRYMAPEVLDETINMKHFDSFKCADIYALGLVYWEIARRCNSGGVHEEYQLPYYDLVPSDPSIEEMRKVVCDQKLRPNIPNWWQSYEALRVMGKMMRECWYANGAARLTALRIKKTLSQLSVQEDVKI
In words: Selectivity interaction (SelectScreen profiling (Invitrogen)) EUB0000607a ACVR1B. The following applies: at 2 µM.

Experiment [3] deals with T2, Histone-arginine methyltransferase CARM1 (Homo sapiens, UniProt Q86X55).
T2 sequence (Q86X55 whole entry): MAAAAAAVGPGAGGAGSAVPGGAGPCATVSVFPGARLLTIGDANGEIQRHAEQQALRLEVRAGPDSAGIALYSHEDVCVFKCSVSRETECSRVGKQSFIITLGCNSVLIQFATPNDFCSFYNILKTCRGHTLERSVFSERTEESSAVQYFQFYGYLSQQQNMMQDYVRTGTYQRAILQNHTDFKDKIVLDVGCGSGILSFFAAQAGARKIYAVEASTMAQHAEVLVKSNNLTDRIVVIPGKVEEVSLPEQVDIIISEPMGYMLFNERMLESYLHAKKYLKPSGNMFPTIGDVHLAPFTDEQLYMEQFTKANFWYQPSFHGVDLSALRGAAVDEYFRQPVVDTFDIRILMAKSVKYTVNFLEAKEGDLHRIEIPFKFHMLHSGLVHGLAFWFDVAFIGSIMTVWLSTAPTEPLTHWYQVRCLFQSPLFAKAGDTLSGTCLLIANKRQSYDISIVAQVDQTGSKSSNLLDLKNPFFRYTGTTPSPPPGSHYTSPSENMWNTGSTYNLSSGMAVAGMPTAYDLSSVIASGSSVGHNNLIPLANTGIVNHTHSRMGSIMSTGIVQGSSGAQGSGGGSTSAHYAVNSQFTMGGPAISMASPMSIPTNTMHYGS
Description: Selectivity interaction (Western Blot (dimethylation of BAF155 (BAF155me2a/BAF155) in KMS-27 cells)) EUB0000255b CARM1. The experiment is classed as cell-based.

Experiment [4] deals with RAF proto-oncogene serine/threonine-protein kinase (Homo sapiens) (UniProt P04049). The following applies: at 10 µM.
In experiment [5] the target is DNA-dependent protein kinase catalytic subunit (Homo sapiens) (UniProt P78527). In words: Selectivity interaction (ActivX KiNativ screen (ex vivo kinase selectivity in human PBMCs)) EUB0001619a PRKDC. The format is cell-based. The following applies: PBMC, at 1 µM.
The target of experiment [6] is Tyrosine-protein kinase HCK (Homo sapiens) (UniProt P08631). In words: Selectivity interaction (Kinase panel (Invitrogen)) EUB0000639a HCK. The following applies: at 200 nM.
Experiment [7] addresses T3, Serine/threonine-protein kinase D3 (Homo sapiens) (UniProt O94806).
T3 sequence (whole entry): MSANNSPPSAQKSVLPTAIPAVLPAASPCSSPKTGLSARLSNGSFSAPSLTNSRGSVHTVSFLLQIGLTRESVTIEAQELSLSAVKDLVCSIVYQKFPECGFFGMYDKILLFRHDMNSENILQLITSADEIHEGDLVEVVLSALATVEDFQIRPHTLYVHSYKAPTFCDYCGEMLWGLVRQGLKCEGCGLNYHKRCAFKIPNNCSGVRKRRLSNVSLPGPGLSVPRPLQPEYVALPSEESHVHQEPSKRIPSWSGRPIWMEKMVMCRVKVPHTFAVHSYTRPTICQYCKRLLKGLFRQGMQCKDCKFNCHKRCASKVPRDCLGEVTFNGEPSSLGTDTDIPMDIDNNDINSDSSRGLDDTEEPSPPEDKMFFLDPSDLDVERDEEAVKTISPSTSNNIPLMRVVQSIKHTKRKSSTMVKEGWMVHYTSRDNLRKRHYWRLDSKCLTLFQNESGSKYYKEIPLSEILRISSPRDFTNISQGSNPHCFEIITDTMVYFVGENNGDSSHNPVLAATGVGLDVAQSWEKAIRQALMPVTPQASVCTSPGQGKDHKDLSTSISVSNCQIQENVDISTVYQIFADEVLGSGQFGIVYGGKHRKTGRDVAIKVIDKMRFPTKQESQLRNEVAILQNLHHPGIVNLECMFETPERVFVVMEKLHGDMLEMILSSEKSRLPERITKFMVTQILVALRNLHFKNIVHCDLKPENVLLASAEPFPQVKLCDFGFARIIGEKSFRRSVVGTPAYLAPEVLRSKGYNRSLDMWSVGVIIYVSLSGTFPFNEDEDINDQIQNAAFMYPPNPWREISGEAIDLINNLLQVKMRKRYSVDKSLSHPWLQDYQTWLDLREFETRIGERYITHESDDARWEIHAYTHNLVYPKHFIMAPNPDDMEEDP
In words: Selectivity interaction (ActivX KiNativ screen (kinase selectivity in THP-1 cell lysates)) EUB0000639a PRKD3. The format is subcellular. The following applies: lysate, at 0.04 µM.

For experiment [8], the target named is BDNF/NT-3 growth factors receptor (Homo sapiens) (UniProt Q16620). Particulars: at 10 µM.
Experiment [9] deals with Cyclin-C/Cyclin-dependent kinase 19 (Homo sapiens) (UniProt Q9BWU1+P24863). In words: Selectivity interaction (ProQinase) EUB0000171b CDK19. The format is protein-complex assay.
Experiment [10] addresses ALK tyrosine kinase receptor (Homo sapiens, UniProt Q9UM73). Description: Selectivity interaction (ProQinase) EUB0000171b ALK. Particulars: at 5 µM.
The target of experiment [11] is Cyclin-dependent kinase 13 (Homo sapiens, UniProt Q14004). In words: Selectivity interaction (KinomeScan (DiscoverX)) EUB0000092b CDK13. The following applies: at 10 µM.
Cyclin-dependent kinase 13, sequence (Q14004 whole entry, looked up): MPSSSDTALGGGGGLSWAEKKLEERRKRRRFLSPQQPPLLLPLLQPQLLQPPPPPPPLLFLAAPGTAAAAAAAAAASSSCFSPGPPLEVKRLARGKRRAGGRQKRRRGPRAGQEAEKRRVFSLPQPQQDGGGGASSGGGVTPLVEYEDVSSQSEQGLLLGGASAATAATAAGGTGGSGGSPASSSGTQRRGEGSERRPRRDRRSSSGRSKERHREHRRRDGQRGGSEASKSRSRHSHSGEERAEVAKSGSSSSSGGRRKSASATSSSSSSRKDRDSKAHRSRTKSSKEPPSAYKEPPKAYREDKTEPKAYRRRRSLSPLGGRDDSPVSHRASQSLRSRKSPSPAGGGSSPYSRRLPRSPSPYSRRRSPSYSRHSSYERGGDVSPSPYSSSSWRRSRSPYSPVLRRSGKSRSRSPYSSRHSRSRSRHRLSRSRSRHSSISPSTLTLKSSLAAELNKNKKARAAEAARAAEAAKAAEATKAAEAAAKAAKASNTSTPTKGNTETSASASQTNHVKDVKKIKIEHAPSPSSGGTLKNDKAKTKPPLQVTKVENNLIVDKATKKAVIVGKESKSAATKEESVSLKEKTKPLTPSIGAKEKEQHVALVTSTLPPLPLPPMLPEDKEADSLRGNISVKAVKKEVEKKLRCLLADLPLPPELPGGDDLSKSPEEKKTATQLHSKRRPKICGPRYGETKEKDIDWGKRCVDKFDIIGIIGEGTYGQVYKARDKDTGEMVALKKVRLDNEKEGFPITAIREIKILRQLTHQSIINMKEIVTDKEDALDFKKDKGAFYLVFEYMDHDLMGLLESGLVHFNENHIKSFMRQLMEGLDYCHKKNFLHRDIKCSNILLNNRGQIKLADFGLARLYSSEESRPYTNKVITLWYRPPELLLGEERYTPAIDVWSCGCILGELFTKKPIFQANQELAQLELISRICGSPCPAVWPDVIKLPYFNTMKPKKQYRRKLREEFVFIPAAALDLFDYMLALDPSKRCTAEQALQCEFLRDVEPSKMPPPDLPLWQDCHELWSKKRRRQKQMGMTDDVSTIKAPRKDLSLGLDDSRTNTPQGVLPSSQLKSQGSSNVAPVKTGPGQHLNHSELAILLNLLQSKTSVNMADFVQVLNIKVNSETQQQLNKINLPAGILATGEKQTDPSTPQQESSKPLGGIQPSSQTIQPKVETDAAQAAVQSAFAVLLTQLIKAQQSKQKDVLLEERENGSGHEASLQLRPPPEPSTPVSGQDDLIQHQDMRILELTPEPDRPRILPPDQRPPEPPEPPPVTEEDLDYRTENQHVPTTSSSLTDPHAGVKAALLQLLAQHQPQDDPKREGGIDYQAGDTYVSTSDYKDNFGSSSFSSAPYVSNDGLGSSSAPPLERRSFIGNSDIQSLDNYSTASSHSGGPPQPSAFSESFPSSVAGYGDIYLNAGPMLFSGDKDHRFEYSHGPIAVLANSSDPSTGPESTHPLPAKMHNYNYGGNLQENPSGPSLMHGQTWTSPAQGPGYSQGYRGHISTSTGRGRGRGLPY

RAF proto-oncogene serine/threonine-protein kinase (Homo sapiens), sequence (P04049 whole entry): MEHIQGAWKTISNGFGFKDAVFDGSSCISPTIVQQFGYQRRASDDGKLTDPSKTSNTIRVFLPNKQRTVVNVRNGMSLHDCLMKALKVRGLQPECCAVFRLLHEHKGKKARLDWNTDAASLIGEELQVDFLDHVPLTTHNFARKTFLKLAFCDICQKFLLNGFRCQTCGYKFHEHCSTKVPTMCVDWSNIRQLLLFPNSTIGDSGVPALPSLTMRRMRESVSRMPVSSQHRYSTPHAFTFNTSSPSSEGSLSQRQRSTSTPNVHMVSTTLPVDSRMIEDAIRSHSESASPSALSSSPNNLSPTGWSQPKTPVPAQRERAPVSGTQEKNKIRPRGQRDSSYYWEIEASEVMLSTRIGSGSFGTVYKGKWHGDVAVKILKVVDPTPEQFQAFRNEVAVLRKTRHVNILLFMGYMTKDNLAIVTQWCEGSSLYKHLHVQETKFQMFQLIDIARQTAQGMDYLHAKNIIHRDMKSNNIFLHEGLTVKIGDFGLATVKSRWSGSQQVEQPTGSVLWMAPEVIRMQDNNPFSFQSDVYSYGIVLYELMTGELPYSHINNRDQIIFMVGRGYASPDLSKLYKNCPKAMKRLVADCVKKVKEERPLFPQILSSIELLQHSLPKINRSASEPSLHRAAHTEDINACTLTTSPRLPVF
ALK tyrosine kinase receptor, sequence (Q9UM73 19-1620 limits assumed): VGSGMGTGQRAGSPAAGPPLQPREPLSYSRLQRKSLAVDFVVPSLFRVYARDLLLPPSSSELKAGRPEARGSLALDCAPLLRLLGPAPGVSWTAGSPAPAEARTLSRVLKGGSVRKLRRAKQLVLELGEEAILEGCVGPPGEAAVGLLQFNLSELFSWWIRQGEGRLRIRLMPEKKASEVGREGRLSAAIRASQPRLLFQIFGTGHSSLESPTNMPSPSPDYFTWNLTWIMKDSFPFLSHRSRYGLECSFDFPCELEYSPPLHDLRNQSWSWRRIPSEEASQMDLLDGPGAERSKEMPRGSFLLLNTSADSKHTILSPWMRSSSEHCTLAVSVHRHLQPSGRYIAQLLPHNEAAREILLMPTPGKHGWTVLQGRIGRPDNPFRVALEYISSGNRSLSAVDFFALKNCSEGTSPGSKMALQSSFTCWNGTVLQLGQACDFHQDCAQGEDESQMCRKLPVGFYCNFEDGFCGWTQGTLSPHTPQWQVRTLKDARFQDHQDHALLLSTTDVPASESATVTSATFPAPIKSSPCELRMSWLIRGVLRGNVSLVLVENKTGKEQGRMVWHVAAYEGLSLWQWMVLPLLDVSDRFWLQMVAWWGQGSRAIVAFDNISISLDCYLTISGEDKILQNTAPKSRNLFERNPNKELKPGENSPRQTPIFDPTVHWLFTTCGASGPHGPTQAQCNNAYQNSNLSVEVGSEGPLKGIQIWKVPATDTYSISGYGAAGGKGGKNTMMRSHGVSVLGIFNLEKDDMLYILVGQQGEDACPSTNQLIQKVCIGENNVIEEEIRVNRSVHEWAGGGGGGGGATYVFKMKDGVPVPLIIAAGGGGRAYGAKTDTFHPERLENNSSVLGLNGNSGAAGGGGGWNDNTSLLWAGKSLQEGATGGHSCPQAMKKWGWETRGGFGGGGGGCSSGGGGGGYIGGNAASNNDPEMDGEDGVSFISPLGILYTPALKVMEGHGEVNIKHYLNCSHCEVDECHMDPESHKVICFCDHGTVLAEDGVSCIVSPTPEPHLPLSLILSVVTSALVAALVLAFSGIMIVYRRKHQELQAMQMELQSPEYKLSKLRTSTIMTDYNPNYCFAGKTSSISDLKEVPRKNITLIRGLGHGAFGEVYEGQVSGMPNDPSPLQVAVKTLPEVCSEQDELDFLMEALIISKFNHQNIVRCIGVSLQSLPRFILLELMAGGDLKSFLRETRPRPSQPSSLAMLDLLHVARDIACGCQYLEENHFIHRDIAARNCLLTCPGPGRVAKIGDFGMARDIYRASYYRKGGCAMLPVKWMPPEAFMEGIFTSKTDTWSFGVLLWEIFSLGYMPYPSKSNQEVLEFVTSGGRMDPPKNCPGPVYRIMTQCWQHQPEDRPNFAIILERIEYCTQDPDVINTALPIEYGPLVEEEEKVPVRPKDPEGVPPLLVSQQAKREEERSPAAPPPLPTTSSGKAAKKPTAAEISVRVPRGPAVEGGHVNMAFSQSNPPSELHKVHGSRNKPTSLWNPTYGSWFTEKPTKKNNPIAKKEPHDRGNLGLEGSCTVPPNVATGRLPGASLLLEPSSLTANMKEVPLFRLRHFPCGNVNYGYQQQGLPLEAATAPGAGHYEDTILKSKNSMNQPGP
BDNF/NT-3 growth factors receptor (Homo sapiens), sequence (Q16620 32-822 limits assumed): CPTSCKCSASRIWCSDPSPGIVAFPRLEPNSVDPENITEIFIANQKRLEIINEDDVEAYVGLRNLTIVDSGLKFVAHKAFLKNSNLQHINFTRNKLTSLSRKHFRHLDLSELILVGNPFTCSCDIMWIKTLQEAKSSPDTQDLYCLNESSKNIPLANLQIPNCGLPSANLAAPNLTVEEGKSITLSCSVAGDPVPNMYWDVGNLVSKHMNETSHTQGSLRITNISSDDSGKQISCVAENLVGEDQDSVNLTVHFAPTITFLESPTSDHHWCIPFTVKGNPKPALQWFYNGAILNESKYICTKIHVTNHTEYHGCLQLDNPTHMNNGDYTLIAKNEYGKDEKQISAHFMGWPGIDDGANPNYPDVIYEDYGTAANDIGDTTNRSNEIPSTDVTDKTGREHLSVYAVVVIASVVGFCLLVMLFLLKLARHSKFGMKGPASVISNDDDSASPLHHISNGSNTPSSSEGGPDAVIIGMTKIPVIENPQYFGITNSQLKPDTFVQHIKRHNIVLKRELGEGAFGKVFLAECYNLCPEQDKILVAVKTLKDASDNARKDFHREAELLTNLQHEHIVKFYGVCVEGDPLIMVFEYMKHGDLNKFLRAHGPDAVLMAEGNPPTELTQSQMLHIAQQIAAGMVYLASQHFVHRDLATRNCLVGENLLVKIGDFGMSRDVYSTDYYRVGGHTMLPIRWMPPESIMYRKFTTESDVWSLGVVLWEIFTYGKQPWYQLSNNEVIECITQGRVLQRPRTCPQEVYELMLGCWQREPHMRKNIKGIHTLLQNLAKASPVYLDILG
Tyrosine-protein kinase Fyn (Homo sapiens), sequence (P06241 2-537 limits assumed): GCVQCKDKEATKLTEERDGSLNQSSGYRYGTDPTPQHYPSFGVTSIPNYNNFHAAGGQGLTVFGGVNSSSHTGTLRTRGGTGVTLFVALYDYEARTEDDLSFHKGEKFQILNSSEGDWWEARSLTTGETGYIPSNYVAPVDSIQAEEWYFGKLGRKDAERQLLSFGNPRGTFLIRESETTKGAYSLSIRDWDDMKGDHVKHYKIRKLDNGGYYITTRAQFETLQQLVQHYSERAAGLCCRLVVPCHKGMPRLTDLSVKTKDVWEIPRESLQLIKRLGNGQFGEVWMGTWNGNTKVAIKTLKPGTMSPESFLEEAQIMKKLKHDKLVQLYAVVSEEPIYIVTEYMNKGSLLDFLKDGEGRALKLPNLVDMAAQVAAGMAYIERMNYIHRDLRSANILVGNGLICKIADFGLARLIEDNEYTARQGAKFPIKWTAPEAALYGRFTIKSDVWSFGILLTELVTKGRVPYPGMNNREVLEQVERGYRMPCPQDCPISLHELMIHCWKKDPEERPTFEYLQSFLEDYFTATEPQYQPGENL

In experiment [1], `CN(C)C/C=C/C(=O)Nc1ccc(C(=O)N2CCCC(Nc3ncc(Cl)c(-c4c[nH]c5ccccc45)n3)C2)cc1` (configuration not stated) yielded a % of control of 61%. Consider `CNC(=O)Nc1ccc(-c2nc(N3CC4CCC(C3)O4)c3cnn(C4CCC5(CC4)OCCO5)c3n2)cc1`, for which the % of inhibition in experiment [2] stood at 3%.

Regarding `COCCN1CCC(c2cc(CN(C)C(=O)c3cccc(Oc4ccccc4)c3)ccn2)CC1`, the IC50 in [3] was over 3 nM. In experiment [4], `CN(C)CCOc1ccc(-c2nc(-c3ccncc3)c(-c3ccc4c(c3)CC/C4=N\O)[nH]2)cc1` displayed a % of control of 0%. In [5], `N#Cc1cccc(-c2c[nH]c3ncnc(N4CCOCC4)c23)c1` had a % of inhibition of 15%.

Turning to `CC[C@@H]1[C@H](F)C(=O)N[C@@H]1COc1nccc2cc(C(N)=O)c(OC)cc12` [ZIMLOVISERTIB], the % of inhibition was determined as 4.23% in experiment [6] and 3.3% in [7].

For `CCN(CC)CCCCNc1ncc2cc(-c3cc(OC)cc(OC)c3)c(NC(=O)NC(C)(C)C)nc2n1`, the % of control in experiment [8] amounted to 100%. `C=CC(=O)Nc1cccc(C(=O)Nc2ccc(Nc3cc(-c4[nH]c(SC)nc4C)ccn3)cc2)c1`: the values for the % of control in [9] (at 1 µM), in [9] (at 5 µM) and in experiment [10] were 72%, 65% and 96%, respectively. Turning to `CCC(=O)N1CCN(c2ccc(-n3c(=O)ccc4cnc5ccc(-c6cnc7ccccc7c6)cc5c43)cc2C(F)(F)F)CC1`, the % of control in experiment [11] is 80%.
